The supplement of paper PMC10307832

Experiments:
Test in all cases: relative viability (nuclei count vs DMSO), 5 days (fraction); higher = more cells survive
[1] = compound: CN1CCN(CC1)C2=CC(=C(C=C2)NC3=NC(=C(S3)C(=O)C4=C(C=CC=C4Cl)Cl)N)OC [XMD14-99] + COc1cc2c(Oc3ccc(NC(=O)C4(C(=O)Nc5ccc(F)cc5)CC4)cc3F)ccnc2cc1OCCCN1CCOCC1 [Foretinib] (partner 0.25 µM)
Procedure, shortened: (§1)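 Lung cancer cell lines were seeded in 1536-well plates and dosed by pin tool the next day, with either a single drug or a fixed anchor-drug dose combined with five library-drug doses (not always all listed) spaced in √10 steps. Five days later, one step fixed the cells and stained their nuclei (final 0.05% Triton X-100, 1% formaldehyde, 1 ug/ml Hoechst), and nuclei were counted on 4× images. Relative viability is the nuclei count in treated wells divided by the count in vehicle wells, and each value is the median of duplicate plates.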

[2] = compound: CN1CCN(CC1)C2=CC(=C(C=C2)NC3=NC(=C(S3)C(=O)C4=C(C=CC=C4Cl)Cl)N)OC [XMD14-99] + O=C(CCCCCCC(=O)Nc1ccccc1)NO [Vorinostat] (partner 1 µM)
Procedure, shortened: as §1

[3] = compound: N[C@@H]1CCCN(c2c(/C=C3\SC(=O)NC3=O)cccc2-c2ccccc2)C1 [AZD1208] + CC(=O)Nc1cccc(-n2c(=O)n(C3CC3)c(=O)c3c(Nc4ccc(I)cc4F)n(C)c(=O)c(C)c32)c1 [Trametinib] (partner 0.02 µM)
Procedure, shortened: as §1

[4] = compound: N[C@@H]1CCCN(c2c(/C=C3\SC(=O)NC3=O)cccc2-c2ccccc2)C1 [AZD1208] + CC1(C)CCC(c2ccc(Cl)cc2)=C(CN2CCN(c3ccc(C(=O)NS(=O)(=O)c4ccc(N[C@H](CCN5CCOCC5)CSc5ccccc5)c(S(=O)(=O)C(F)(F)F)c4)cc3)CC2)C1 [Navitoclax] (partner 0.5 µM)
Procedure, shortened: as §1

Cell Line	relative viability ([1]; first compound 0.08 µM)	relative viability ([1]; first compound 0.8 µM)	relative viability ([1]; first compound 2.53 µM)	relative viability ([1]; first compound 8 µM)	relative viability ([2]; first compound 0.08 µM)	relative viability ([2]; first compound 0.8 µM)	relative viability ([2]; first compound 2.53 µM)	relative viability ([2]; first compound 8 µM)	relative viability ([3]; first compound 0.08 µM)	relative viability ([3]; first compound 0.253 µM)	relative viability ([3]; first compound 0.8 µM)	relative viability ([3]; first compound 2.53 µM)	relative viability ([3]; first compound 8 µM)	relative viability ([4]; first compound 0.08 µM)	relative viability ([4]; first compound 0.253 µM)	relative viability ([4]; first compound 0.8 µM)	relative viability ([4]; first compound 2.53 µM)	relative viability ([4]; first compound 8 µM)
SK-MES-1	1.01	0.927	0.971	0.745	1.08	1.08	1.05	0.657	0.47	0.509	0.54	0.533	0.482	1.08	1.41	1.08	1.03	0.926
SW 1573	0.814	0.992	0.861	0.824	0.833	0.765	0.756	0.631	0.433	0.438	0.44	0.419	0.317	0.896	0.948	0.765	0.995	0.717
